Key:
Assay in all cases: Test E
[1] = tested on: BONANZA BARLEY; type: in vivo, Hordeum vulgare cv. Bonanza
[2] = tested on: ANN. BLUEGRASS; type: in vivo, PO annua
[3] = tested on: BLACKGRASS; type: in vivo, Alopercurus mysuroides
Text: Seeds of the following crops and weeds are sown into 15 cm pots containing Sassafras sandy loam soil: wheat (Triticum aestivum cv. Park), barley (Hordeum vulgare cv. Bonanza), sugarbeet (Beta vulgaris cv. USH-11), rapeseed (Brassica napus cv. Jet Neuf), black nightshade (Solanum nigrum), chickweed (Stellaria media), lambsquarter (Chenopodium album), Galium aparine, knotweed (Polygonum aviculare), Kochia scoparia, Matricaria indora, redroot pigweed (Amaranthus retroflexus), smartweed (Polygonum persicaria), speedwell (Veronica persica), wild buckwheat (Polygonum convolvulus), wild mustard (Brassica spp.), wild radish (Raphanus raphanistrum), annual bluegrass (PO annua), annual ryegrass (Lolium multiflorum), blackgrass (Alopercurus mysuroides), green foxtail (Setaria viridis), and wild oats (Avena fatua). Compounds are formulated in a nonphytotoxic solvent and applied to the plants as a foliar spray or applied to the soil surface. Plants are treated at two stages: preemergence, or postemergence when the sugarbeets are at the 2-3 true leaf stage. Plants are grown in a temperature-controlled greenhouse for the duration of the test.
Weed control and crop injury are evaluated visually at 3-4 weeks after compound application, using a scale of 0 to 100%, where 0=no injury and 100=complete death of the plant. All plants are rated with respect to untreated plants (checks) grown in the greenhouse under identical conditions to the treated plants.

[4] = tested on: GREEN FOXTAIL; type: in vivo, Setaria viridis

SMILES | plant response ([1]; POSTEMERGENCE 0064 GM/HA) [%] | plant response ([1]; POSTEMERGENCE 0125 GM/HA) [%] | plant response ([1]; POSTEMERGENCE 0250 GM/HA) [%] | plant response ([1]; POSTEMERGENCE 0500 GM/HA) [%] | plant response ([1]; PREEMERGENCE 0250 GM/HA) [%] | plant response ([2]; POSTEMERGENCE 0064 GM/HA) [%] | plant response ([2]; POSTEMERGENCE 0125 GM/HA) [%] | plant response ([2]; POSTEMERGENCE 0250 GM/HA) [%] | plant response ([2]; POSTEMERGENCE 0500 GM/HA) [%] | plant response ([2]; PREEMERGENCE 0250 GM/HA) [%] | plant response ([3]; POSTEMERGENCE 0064 GM/HA) [%] | plant response ([3]; POSTEMERGENCE 0125 GM/HA) [%] | plant response ([3]; POSTEMERGENCE 0250 GM/HA) [%] | plant response ([3]; POSTEMERGENCE 0500 GM/HA) [%] | plant response ([3]; PREEMERGENCE 0250 GM/HA) [%] | plant response ([4]; POSTEMERGENCE 0064 GM/HA) [%] | plant response ([4]; POSTEMERGENCE 0125 GM/HA) [%] | plant response ([4]; POSTEMERGENCE 0250 GM/HA) [%] | plant response ([4]; POSTEMERGENCE 0500 GM/HA) [%] | plant response ([4]; PREEMERGENCE 0250 GM/HA) [%] | also measured
C=C(c1ccccc1)C(O)(Cn1cncn1)c1ccc(F)cc1F (centres unmarked) [Example 52, 2-(2,4-Difluorophenyl)-3-phenyl-1-(1H-1,2,4-triazol-1-yl)-3-buten-2-ol] | 0 | 20 | 20 | 40 | 100 | 30 | 40 | 60 | 70 | 100 | 0 | 0 | 20 | 60 | 20 | 0 | 0 | 40 | 75 | 100 | 
C=C(c1ccc(Cl)cc1Cl)C(O)(Cn1cncn1)c1ccccc1F (centres unmarked) [Example 107] |  |  |  |  | 80 |  |  |  |  | 20 |  |  |  |  | 20 |  |  |  |  | 100 | 
C=C(c1ccc(F)cc1)C(O)(Cn1cncn1)c1ccccc1F (centres unmarked) [Example 644] | 0 | 20 | 20 | 40 |  | 20 | 50 | 50 | 80 |  | 0 | 0 | 30 | 50 |  | 30 | 30 | 50 | 50 |  | plant response ([1]; PREEMERGENCE 0500 GM/HA): 50%; plant response ([2]; PREEMERGENCE 0500 GM/HA): 80%; plant response ([3]; PREEMERGENCE 0500 GM/HA): 20%; plant response ([4]; PREEMERGENCE 0500 GM/HA): 100%

— patent publication US4965280A, “Antifungal carbinols” (E. I. Du Pont de Nemours and Company, priority 1989, dated 1990)
